From patent US7795220B2, “Conformationally constrained parathyroid hormones with alpha-helix stabilizers” (The General Hospital Corporation, priority 2003, dated 2010) come the findings set out here.

The target of one assay is T1, hP1R-delNt (Homo sapiens, UniProt Q03431).
T1 construct: expressed in transfected cells
T1 sequence (Q03431 with tags, fused parts or gaps limits assumed): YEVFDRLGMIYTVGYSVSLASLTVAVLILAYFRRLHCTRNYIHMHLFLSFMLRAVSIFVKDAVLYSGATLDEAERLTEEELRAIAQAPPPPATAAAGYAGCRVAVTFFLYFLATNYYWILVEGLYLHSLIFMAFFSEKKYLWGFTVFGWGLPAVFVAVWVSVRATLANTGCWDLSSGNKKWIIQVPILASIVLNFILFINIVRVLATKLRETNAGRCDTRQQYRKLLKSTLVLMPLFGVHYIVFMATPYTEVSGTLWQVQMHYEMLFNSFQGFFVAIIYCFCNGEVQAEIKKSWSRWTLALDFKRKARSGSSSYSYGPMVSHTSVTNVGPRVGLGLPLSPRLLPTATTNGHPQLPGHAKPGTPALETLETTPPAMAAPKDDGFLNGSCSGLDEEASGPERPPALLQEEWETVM
Briefly: cAMP stimulation in LdelNt-2 cells. The class given is cell-based. An excerpt: Cell Culture. The cell line HKRK-B28 (Takasu, H., et al., J. Bone Miner. Res. 14:11-20 (1999)) was derived from the porcine kidney cell line, LLC-PK1 by stable transfection with plasmid DNA encoding a recombinant P1R chimera comprised of the opposum P1R from the N-terminus to the mid region of TM3 and the rat P1R from the mid region of TM3 to the C-terminus. The surface density of the P1R in these cells is ˜280,000 receptors per cell. The clonal cell line LdelNt-2 was derived from LLC-PK, cells via stable transfection with a plasmid encoding P1R-delNt, a recombinant human PTH-1 receptor construct in which most of the amino-terminal extracellular domain is deleted. These cells, as well as COS-7 cells and SaOS-2-B10 cells, were cultured at […] in T-75 flasks ([…]) in Dulbecco's modified Eagle's medium (DMEM) supplemented with fetal bovine serum (10%), penicillin G (20 units/ml), streptomycin sulfate (20 μg/ml) and amphotericin B (0.05 μg/ml) in a humidified atmosphere containing 5% CO2. Stock solutions of EGTA/trypsin and antibiotics were from GLBCO; fetal bovine serum was from Hyclone Laboratories (Logan, Utah). COS-7 cells sub-cultured in 24-well plates were transfected with plasmid DNA (200 ng per well) encoding the wild-type human P1R or truncated human P1R deleted for residues (24-181) (Shimizu, M., et al., J. Biol. Chem. 275:21836-21843 (2000)) that was purified by cesium chloride/ethidium bromide density gradient centrifugation, and FuGENE 6 transfection reagent (Roche Indianapolis Ind.) according to the manufacturer's recommended procedure. All cells, in 24-well plates, were treated with fresh media and shifted to 33° C. for 12 to 24 h prior to assay.
cAMP Stimulation. Stimulation of cells with peptide analogs was performed in 24-well plates. Cells were rinsed with 0.5 mL of binding buffer (50 mM Tris-HCl, 100 mM NaCl, 5 mM KCl, 2 mM CaCl2, 5% heat-inactivated horse serum, 0.5% fetal bovine serum, adjusted to pH 7.5 with HCl) and treated with 200 μL of cAMP assay buffer (Delbecco's modified Eagle's medium containing 2 mM 3-isobutyl-1-methylxanthine, 1 mg/mL bovine serum albumin, 35 mM Hepes-NaOH, pH 7.4) and 100 μL of binding buffer containing varying amounts of peptide analog (final volume=300 μL). The medium was removed after incubation for 30 to 60 minutes at room temperature, and the cells were frozen on dry ice, lysed with 0.5 mL 50 mM HCl, and refrozen ([…]). The cAMP content of the diluted lysate was determined by radioimmunoassay. The EC50 response values were calculated using nonlinear regression (see below).
Data Calculation. Calculations were performed using Microsoft® Excel. Nonlinear regression analyses of binding and cAMP dose-response data were performed using the four-parameter equation: yp=Min+[(Max−Min)/(1+(IC50/x)^slope)]. The Excel Solver function was utilized for parameter optimization, as described previously (Carter, P. H., et al., Endocrinology 140: 4972-4981 (1999); Bowen, W. P., and Jerman, J. C., Trends in Pharmacol. Sci. 16: 413-417 (1995)). Differences between paired data sets were statistically evaluated using a one-tailed Student's t-test, assuming unequal variances for the two sets.
Agonist activities of selected analogs in cells expressing P1R-delNt were examined. This PTH-1 receptor construct lacks most of the N domain, but nevertheless mediates full agonist responses to N-terminally modified PTH analogs, and thus enables the relative roles of the receptor's N and J domains to the ligand interaction process to be evaluated. The clonal cell line LdelNT-2 was used, which was derived from LLC-PK, cells by stable transfection with a plasmid encoding the human P1R-delNt construct.

In a further assay the target is T2, hP1R (Homo sapiens, UniProt Q03431).
T2 construct: expressed in transfected cells; host or cells: COS-7, transient transfection (FuGENE 6)
T2 sequence (Q03431 27-593): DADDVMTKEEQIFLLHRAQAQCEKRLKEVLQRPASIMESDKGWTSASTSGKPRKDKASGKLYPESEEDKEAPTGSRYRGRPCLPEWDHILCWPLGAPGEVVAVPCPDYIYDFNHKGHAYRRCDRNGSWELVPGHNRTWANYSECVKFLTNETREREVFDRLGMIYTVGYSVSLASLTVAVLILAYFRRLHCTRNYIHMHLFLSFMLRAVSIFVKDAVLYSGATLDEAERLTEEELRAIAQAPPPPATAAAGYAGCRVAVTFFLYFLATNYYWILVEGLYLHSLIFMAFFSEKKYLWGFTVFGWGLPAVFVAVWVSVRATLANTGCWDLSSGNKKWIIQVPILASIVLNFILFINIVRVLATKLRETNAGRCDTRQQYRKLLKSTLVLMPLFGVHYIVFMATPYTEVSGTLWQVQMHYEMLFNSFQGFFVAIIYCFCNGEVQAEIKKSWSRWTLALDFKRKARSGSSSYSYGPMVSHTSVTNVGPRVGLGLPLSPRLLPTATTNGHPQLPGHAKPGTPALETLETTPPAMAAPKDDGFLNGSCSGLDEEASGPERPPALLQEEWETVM
As to the kind of experiment: Stimulation of inositol phosphate production / phospholipase C in COS-7 cells. The class given is cell-based. An excerpt:
Cell Culture. The cell line HKRK-B28 (Takasu, H., et al., J. Bone Miner. Res. 14:11-20 (1999)) was derived from the porcine kidney cell line, LLC-PK1 by stable transfection with plasmid DNA encoding a recombinant P1R chimera comprised of the opposum P1R from the N-terminus to the mid region of TM3 and the rat P1R from the mid region of TM3 to the C-terminus. The surface density of the P1R in these cells is ˜280,000 receptors per cell. The clonal cell line LdelNt-2 was derived from LLC-PK, cells via stable transfection with a plasmid encoding P1R-delNt, a recombinant human PTH-1 receptor construct in which most of the amino-terminal extracellular domain is deleted. These cells, as well as COS-7 cells and SaOS-2-B10 cells, were cultured at […] in T-75 flasks ([…]) in Dulbecco's modified Eagle's medium (DMEM) supplemented with fetal bovine serum (10%), penicillin G (20 units/ml), streptomycin sulfate (20 μg/ml) and amphotericin B (0.05 μg/ml) in a humidified atmosphere containing 5% CO2. […]
Stimulation of Inositol Phosphate Production. […] The lysate was then applied to an ion exchange column (0.5 mL resin bed) and the total inositol phosphates were eluted as described previously (Berridge, M. J., et al., Biochem. J. 212:473-482 (1983)), and counted in liquid scintillation cocktail.

Molecules are shown by their SMILES. Non-standard residues stand in square brackets, D forms with d. Residues, ends and D or L forms follow the SMILES beside them. hArg = N=C(N)NCCCC[C@H](N)C(=O)O; Ac5c = NC1(C(=O)O)CCCC1; Aib = CC(C)(N)C(=O)O

In general, EC50 refers to the concentration that produces a half-maximal response. On to `CC[C@H](C)[C@H](NC(=O)[C@H](CCC(=O)O)NC(=O)C(C)(C)NC(=O)[C@@H](NC(=O)C1(N)CCCC1)C(C)C)C(=O)N[C@@H](CCC(N)=O)C(=O)N[C@@H](CC(C)C)C(=O)N[C@@H](CCSC)C(=O)N[C@@H](Cc1c[nH]cn1)C(=O)N[C@@H](CCC(N)=O)C(=O)N[C@@H](CCCCNC(=N)N)C(=O)N[C@@H](C)C(=O)N[C@@H](CCCCN)C(=O)N[C@@H](Cc1c[nH]c2ccccc12)C(N)=O` [[Ac5c^1,Aib^3,M]PTH(1-14), [Ac5c^1,Aib^3,Gln^10,Har^11,Ala^12,Trp^14]PTH(1-14)NH2] (H-[Ac5c]V[Aib]EIQLMHQ[hArg]AKW-NH2), for which, at hP1R-delNt, it took 6.4 ± 2.3 nM to reach a half-maximal effect (EC50), the “increase in cAMP accumulation (Emax) over basal” value is reported as 70 fold and the “maximum cAMP response” value is listed as 125±19 picomoles of cAMP per well. Besides, the “potency for stimulating phospholipase C relative to [Aib1,3,M]PTH(1-14)” value on hP1R is reported as 2 fold.
